Experimental findings from patent US9216972B2, “Tricyclic heterocyclic compounds” (Bristol-Myers Squibb Company, priority 2009, dated 2015) are described below.

As a reminder, the pEC50 is the EC50 on a negative log10 scale, so that one unit is a factor of ten. Read a high pEC50 as a small EC50. A word on the pIC50: it is the IC50 on a negative log10 scale, so that one unit is a factor of ten. Low readings indicate a high IC50, high ones a low IC50.

Each structure is given as a SMILES string. pEC50, pIC50: −log10 of the molar value.

For test [1], the target named is S1P3 (membranes from EDG3-Ga15-bla HEK293T cells) (Homo sapiens (Human), UniProt Q99500). Kind of test: Receptor [35S] GTPγS Binding Assay, S1P3. It counts as biochemical. As to conditions: EDG3-Ga15-bla HEK293T cell membranes; rounded to two digits. How it is done:
(§1) Receptor [35S] GTPγS Binding Assays
(§2) Compounds were loaded in a 384 Falcon v-bottom plate (0.5 μl/well in a 11 point, 3-fold dilution). Membranes prepared from S1P1/CHO cells or EDG3-Ga15-bla HEK293T cells were added to the compound plate (40 μl/well, final protein 3 μg/well) with multidrop. [^35S]GTP (1250 Ci/mmol, Perkin Elmer) was diluted in assay buffer: 20 mM HEPES, pH7.5, 10 mM MgCl2, 150 mM NaCl, 1 mM EGTA, 1 mM DTT, 10 μM GDP, 0.1% fatty acid free BSA, and 10 μg/ml Saponin to 0.4 nM. 40 μl of the [^35S] GTP solution was added to the compound plate with a final concentration of 0.2 nM. The reaction was kept at room temperature for 45 min. At the end of incubation, all the mixtures in the compound plate were transferred to Millipore 384-well FB filter plates via the Velocity11 Vprep liquid handler. The filter plate was washed with water 4 times by using the manifold Embla plate washer and dried at 60° C. for 45 min. MicroScint 20 scintillation fluid (30 μl) was added to each well for counting on the Packard TopCount. EC50 is defined as the agonist concentration that corresponds to 50% of the Ymax (maximal response) obtained for each individual compound tested. The results in Table B were rounded to two digits.
(In general: GTPγS is a poorly hydrolysed GTP analogue; its binding reports G protein activation.)

The target in test [2] is S1P1 (membranes from S1P1/CHO cells) (Homo sapiens (Human), UniProt P21453). Put plainly: Receptor [35S] GTPγS Binding Assay, S1P1. It counts as biochemical. As to conditions: S1P1/CHO cell membranes; rounded to two digits. How it is done: as §1, §2
The next test has as its target human S1P1 (Homo sapiens (Human), UniProt P21453). Put plainly: S1P1 Binding Assay (33P-S1P radioligand competition). As to conditions: membranes from CHO cells expressing human S1P1; 0.03 nM 33P-S1P; rounded to two digits. How it is done:
Membranes were prepared from CHO cells expressing human S1P1. Cells pellets (1×10^8cells/pellet) were suspended in buffer containing 20 mM HEPES, pH 7.5, 50 mM NaCl, 2 mM EDTA and Protease Inhibitor cocktail (Roche), and disrupted on ice using the Polytron homogenizer. The homogenate was centrifuged at 20,000 rpm (48,000 g) and the supernatant was discarded. The membrane pellets were resuspended in buffer containing 50 mM HEPES, pH 7.5, 100 mM NaCl, 1 mM MgCl2, 2 mM EDTA and stored in aliquots at −80° C. after protein concentration determination.
Membranes (2 μg/well) and 0.03 nM final concentration of ^33P-S1P ligand (1 mCi/ml, American Radiolabeled Chemicals) diluted in assay buffer (50 mM HEPES, pH7.4, 5 mM MgCl2, 1 mM CaCl2, 0.5% fatty acid free BSA, 1 mM NaF) were added to the compound plates (384 Falcon v-bottom plate (0.5 μl/well in a 11 point, 3-fold dilution). Binding was performed for 45 minutes at room temperature, terminated by collecting the membranes onto 384-well Millipore FB filter plates, and radioactivity was measured by TopCount. The competition data of the test compounds over a range of concentrations was plotted as percentage inhibition of radioligand specific binding. The IC50 is defined as the concentration of competing ligand needed to reduce specific binding by 50%.

Test [3] deals with circulating blood lymphocytes. Put plainly: Blood Lymphocyte Reduction Assay (BLR) in Rodents. The following applies: Lewis rats, oral, versus vehicle (PEG300) group. It counts as in vivo. How it is done:
Blood Lymphocyte Reduction Assay (BLR) in Rodents
Lewis rats were dosed orally with test article (as a solution or suspension in the vehicle) or vehicle alone (polyethylene glycol 300, “PEG300”). Blood was drawn at 4 hr and 24 h by retro-orbital bleeding. Blood lymphocyte counts were determined on an ADVIA 120 Hematology Analyzer (Siemens Healthcare Diagnostics). The results were measured as a reduction in the percentage of circulating lymphocytes as compared to the vehicle treated group at the 4 hr and 24 hr measurement. The results represent the average results of all animals within each treatment group (n=3-4).

Sequence of human S1P1 (P21453 whole entry): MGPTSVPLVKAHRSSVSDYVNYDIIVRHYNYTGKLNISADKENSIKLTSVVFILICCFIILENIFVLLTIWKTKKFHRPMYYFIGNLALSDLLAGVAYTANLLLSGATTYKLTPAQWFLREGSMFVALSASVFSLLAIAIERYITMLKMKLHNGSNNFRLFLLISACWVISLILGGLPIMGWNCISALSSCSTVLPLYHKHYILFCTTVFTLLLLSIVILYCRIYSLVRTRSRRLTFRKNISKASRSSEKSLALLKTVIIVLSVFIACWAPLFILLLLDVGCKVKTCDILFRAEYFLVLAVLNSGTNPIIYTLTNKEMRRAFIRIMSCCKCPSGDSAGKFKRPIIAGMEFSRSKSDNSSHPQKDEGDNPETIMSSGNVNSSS
Sequence of S1P1 (membranes from S1P1/CHO cells) (P21453 whole entry): as above
Sequence of S1P3 (membranes from EDG3-Ga15-bla HEK293T cells) (Q99500 whole entry): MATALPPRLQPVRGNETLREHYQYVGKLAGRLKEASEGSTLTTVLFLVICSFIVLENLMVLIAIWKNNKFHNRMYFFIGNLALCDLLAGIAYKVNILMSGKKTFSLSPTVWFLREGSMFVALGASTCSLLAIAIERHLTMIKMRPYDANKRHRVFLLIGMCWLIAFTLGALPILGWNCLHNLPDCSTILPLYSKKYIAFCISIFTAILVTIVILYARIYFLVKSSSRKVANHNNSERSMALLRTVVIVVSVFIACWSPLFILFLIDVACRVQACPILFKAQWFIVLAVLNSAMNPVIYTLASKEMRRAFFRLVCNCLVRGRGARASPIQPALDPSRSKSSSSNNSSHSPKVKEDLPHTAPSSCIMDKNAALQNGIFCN

For `CC(C)Cc1ccc(-c2onc3c2CCc2cc(CN4CC(C(=O)O)C4)ccc2-3)cc1C(F)(F)F` [Example 23, 1-((3-(4-Isobutyl-3-(trifluoromethyl)phenyl)-4,5-dihydronaphtho[1,2-c]isoxazol-7-yl)methyl)azetidine-3-carboxylic acid], the pEC50 was 5.46 in test [1] and 9.14 in test [2]. In addition, the negative logarithm of the IC50 (pIC50) on human S1P1 was 9.01. In test [3] (dose 3.0 mg/kg), the “% Reduction in Lymphocytes at 4 hr.” value is listed as 76%.

For `CCCc1ccc(-c2noc3c2COc2cc(CN4CC(C(=O)O)C4)ccc2-3)cc1` [Example 3, 1-((3-(4-Propylphenyl)-4H-chromeno[3,4-d]isoxazol-7-yl)methyl)azetidine-3-carboxylic acid], the pEC50 in test [1] is 5.89; in test [2], 8.89. Moreover, the pIC50 at human S1P1 was 8.89. In test [3] (dose 1.0 mg/kg), the “% Reduction in Lymphocytes at 4 hr.” value was 85%.

In the case of `CC(C)Cc1onc(-c2onc3c2CCc2cc(CN4CC(C(=O)O)C4)ccc2-3)c1C(F)(F)F` [Example 5, 1-((3-(5-Isobutyl-4-(trifluoromethyl)isoxazol-3-yl)-4,5-dihydronaphtho[1,2-c]isoxazol-7-yl)methyl)azetidine-3-carboxylic acid], the figures for the negative logarithm of the EC50 (pEC50) in test [1] and in test [2] were 5.82 and 9.13, respectively. The same compound gave a negative-log IC50 (pIC50) at human S1P1 of 9.24. Moreover, the “% Reduction in Lymphocytes at 4 hr.” value in test [3] (dose 1.0 mg/kg) was found to be 83%.
